In brackets after ≈: the same amount, converted by molar mass.
Columns and labels:
Bacillus subtilis KY4273 = experiment: MIC, agar dilution method, pH 8.0; assay type: cell-based; details: pH 8.0; Bacillus subtilis KY4273; read-out: Minimum inhibition concentration (MIC), BS
Procedure: (§1) Measurement was carried out according to the agar dilution method, using a medium of pH 8.0, or the Japanese Antibiotic Medicament Standard, using a medium of pH 7.2 Units are in mcg/ml.
B.S.: Bacillus subtilis KY4273

[1] = system: Shigella sonnei KY4281 ATCC9290; experiment: MIC, agar dilution method, pH 8.0; assay type: cell-based; details: ATCC9290; pH 8.0; Shigella sonnei KY4281; read-out: Minimum inhibition concentration (MIC), SS
Procedure: as §1

[2] = system: Proteus vulgaris KY4277 ATCC6897; experiment: MIC, agar dilution method, pH 8.0; assay type: cell-based; details: ATCC6897; pH 8.0; Proteus vulgaris KY4277; read-out: Minimum inhibition concentration (MIC), PV
Procedure: as §1

[3] = system: Eschericia coli KY4271 ATCC26; experiment: MIC, agar dilution method, pH 8.0; assay type: cell-based; details: Escherichia coli, ATCC26; pH 8.0; E. coli KY4271; read-out: Minimum inhibition concentration (MIC), EC
Procedure: as §1
E.C.: Eschericia coli KY4271 ATCC26

[4] = system: Escherichia coli R20 KY8349; experiment: MIC, agar dilution method, pH 7.2; assay type: cell-based; details: R20KY8349, pH 7.2, E. coli R20 KY8349, 5**: neomycin, producing phosphotransferase type I, read-out: Minimum inhibition concentration (MIC)
Procedure: as §1
5: neomycin, producing phosphotransferase type I.

[5] = system: Klebsiella pneumoniae KY4275 ATCC10031; experiment: MIC, agar dilution method, pH 8.0; assay type: cell-based; details: Klebsiella pneumoniae, ATCC10031, pH 8, read-out: Minimum inhibition concentration (MIC), KP
Procedure: as §1
K.P.: Klebsiella pneumoniae KY4275 ATCC10031.

[6] = system: Pseudomonas aeruginosa R5 KY8512; experiment: MIC, agar dilution method, pH 7.2; assay type: cell-based; details: R5KY8512, pH 7.2, read-out: Minimum inhibition concentration (MIC)
Procedure: as §1
6: neomycin, producing phosphotransferase type I and type II.

[7] = system: Escherichia coli R18 KY8321; experiment: MIC, agar dilution method, pH 7.2; assay type: cell-based; details: R18KY8321, E. coli R18 KY8321, 2**: gentamicin, producing adenylsynthetase and neomycin phosphotransferase type II, read-out: Minimum inhibition concentration (MIC)
Procedure: as §1
2: gentamicin, producing adenylsynthetase and neomycin phosphotransferase

Escherichia coli 76-2 = experiment: MIC, agar dilution method, pH 7.2; assay type: cell-based; details: Escherichia coli, 762, pH 7.2, read-out: Minimum inhibition concentration (MIC)
Procedure: as §1
(§2) **1: gentamicin, producing adenylsynthetase.

[8] = system: Escherichia coli 57R/W677; experiment: MIC, agar dilution method, pH 7.2; assay type: cell-based; details: 57R/W677, pH 7.2, read-out: Minimum inhibition concentration (MIC)
Procedure: as §1, §2

[9] = system: Escherichia coli R12 Z-338; experiment: MIC, agar dilution method, pH 7.2; assay type: cell-based; details: R12Z338, pH 7.2, read-out: Minimum inhibition concentration (MIC)
Procedure: as §1, §2

[10] = system: Klebsiella pneumoniae 3020 Y-60; experiment: MIC, agar dilution method, pH 7.2; assay type: cell-based; details: Klebsiella pneumoniae, 3020Y60, pH 7.2, read-out: Minimum inhibition concentration (MIC)
Procedure: as §1, §2

[11] = system: Staphylococcus aureus KY4279 ATCC6538P; experiment: MIC, agar dilution method, pH 8.0; assay type: cell-based; details: pH 8.0, Staphylococcus aureus KY4279, read-out: Minimum inhibition concentration (MIC), SA
Procedure: as §1
S.A.: Staphylococcus aureus KY4279 ATCC6538P

Eschericihia coli 3100 = experiment: MIC, agar dilution method, pH 7.2; assay type: cell-based, Escherichia coli; details: Escherichia coli, 3100, pH 7.2, read-out: Minimum inhibition concentration (MIC)
Procedure: as §1

[12] = system: Pseudomonas aeruginosa R4 KY8511; experiment: MIC, agar dilution method, pH 7.2; assay type: cell-based; details: R4KY8511, pH 7.2, read-out: Minimum inhibition concentration (MIC)
Procedure: as §1
(§3) 4: gentamicin, producing acetyltransferase type I.

[13] = system: Escherichia coli R19 KY8348; experiment: MIC, agar dilution method, pH 7.2; assay type: cell-based; details: R19KY8348, pH 7.2, read-out: Minimum inhibition concentration (MIC)
Procedure: as §1, §3

[14] = system: Salmonella typhosa KY4278 ATCC9992; experiment: MIC, agar dilution method, pH 8.0; assay type: cell-based; details: Salmonella enterica, pH 8, read-out: Minimum inhibition concentration (MIC), ST
Procedure: as §1
S.T.: Salmonella typhosa KY4278 ATCC9992

Providencia sp 164 = experiment: MIC, agar dilution method, pH 7.2; assay type: cell-based; details: Providencia, 164, pH 7.2, read-out: Minimum inhibition concentration (MIC)
Procedure: as §1
7: gentamicin, producing acetyltransferase type II.

Escherichia coli NIHTC-2 = experiment: MIC, agar dilution method, pH 7.2; assay type: cell-based; details: Escherichia coli, NIHTC2, pH 7.2, read-out: Minimum inhibition concentration (MIC)
Procedure: as §1

[15] = system: Staphylococcus aureus Smith (A); experiment: MIC, agar dilution method, pH 7.2; assay type: cell-based; details: Staphylococcus aureus, pH 7.2, read-out: Minimum inhibition concentration (MIC)
Procedure: as §1

[16] = system: Eschericihia coli GN2411-5; experiment: MIC, agar dilution method, pH 7.2; assay type: cell-based; details: Escherichia coli, GN2411, pH 7.2, read-out: Minimum inhibition concentration (MIC)
Procedure: as §1

[17] = system: Klebsiella pneumoniae KY4274; experiment: MIC, agar dilution method, pH 7.2; assay type: cell-based; details: Klebsiella pneumoniae, KY4274, pH 7.2, read-out: Minimum inhibition concentration (MIC)
Procedure: as §1

[18] = system: Pseudomonas aeruginosa BMH# 1; experiment: MIC, agar dilution method, pH 7.2; assay type: cell-based; details: Pseudomonas aeruginosa, pH 7.2, read-out: Minimum inhibition concentration (MIC)
Procedure: as §1

Shigella sonnei ATCC9290 = experiment: MIC, agar dilution method, pH 7.2; assay type: cell-based; details: read-out: Minimum inhibition concentration (MIC)
Procedure: as §1

Proteus vulgaris JJ = experiment: MIC, agar dilution method, pH 7.2; assay type: cell-based; details: Proteus vulgaris, pH 7.2, read-out: Minimum inhibition concentration (MIC)
Procedure: as §1

[19] = system: Staphylococcus aureus 209-P; experiment: MIC, agar dilution method, pH 7.2; assay type: cell-based; details: Staphylococcus aureus, 209P, pH 7.2, read-out: Minimum inhibition concentration (MIC)
Procedure: as §1

[20] = system: Salmonella enteritidis G-14; experiment: MIC, agar dilution method, pH 7.2; assay type: cell-based; details: Salmonella enterica, ENTERITIDIS, pH 7.2, read-out: Minimum inhibition concentration (MIC)
Procedure: as §1

[21] = system: Pseudomonas aeruginosa UCLA 4184; experiment: MIC, agar dilution method, pH 7.2; assay type: cell-based; details: Pseudomonas aeruginosa, UCLA4184, pH 7.2, read-out: Minimum inhibition concentration (MIC)
Procedure: as §1

## CO[C@H]1[C@@H](O)[C@H](N)[C@@H](O[C@H]2O[C@H]([C@H](C)N)CC[C@H]2N)[C@H](O)[C@@H]1N(C)C(=O)CN [Compound 2, 4-N-glycylfortimicin B, reference compound]
Bacillus subtilis KY4273
  MIC: 0.04 µg/mL (≈ 0.0986 µM)
[1]
  MIC: 0.63 µg/mL (≈ 1.55 µM)
[2]
  MIC: 0.32 µg/mL (≈ 0.789 µM)
[3]
  MIC: 0.16 µg/mL (≈ 0.395 µM)
[4]
  MIC: 3.12 µg/mL (≈ 7.69 µM)
[5]
  MIC: 0.16 µg/mL (≈ 0.395 µM)
[6]
  MIC: 12.5 µg/mL (≈ 30.8 µM)
[7]
  MIC: 3.12 µg/mL (≈ 7.69 µM)
Escherichia coli 76-2
  MIC: 3.12 µg/mL (≈ 7.69 µM)
[8]
  MIC: 12.5 µg/mL (≈ 30.8 µM)
[9]
  MIC: 12.5 µg/mL (≈ 30.8 µM)
[10]
  MIC: 12.5 µg/mL (≈ 30.8 µM)
[11]
  MIC: 0.04 µg/mL (≈ 0.0986 µM)
Eschericihia coli 3100
  MIC: 6.25 µg/mL (≈ 15.4 µM)
[12]
  MIC: > 100 µg/mL
[13]
  MIC: > 100 µg/mL
[14]
  MIC: 0.16 µg/mL (≈ 0.395 µM)
Providencia sp 164
  MIC: 25 µg/mL (≈ 61.7 µM)
Escherichia coli NIHTC-2
  MIC: 3.12 µg/mL (≈ 7.69 µM)
[15]
  MIC: 0.78 µg/mL (≈ 1.92 µM)
[16]
  MIC: 6.25 µg/mL (≈ 15.4 µM)
[17]
  MIC: 3.12 µg/mL (≈ 7.69 µM)
[18]
  MIC: 12.5 µg/mL (≈ 30.8 µM)
Shigella sonnei ATCC9290
  MIC: 6.25 µg/mL (≈ 15.4 µM)
Proteus vulgaris JJ
  MIC: 3.12 µg/mL (≈ 7.69 µM)
[19]
  MIC: 0.78 µg/mL (≈ 1.92 µM)
[20]
  MIC: 6.25 µg/mL (≈ 15.4 µM)
[21]
  MIC: 25 µg/mL (≈ 61.7 µM)
